Patent US20250120902A1, “POSTBIOTIC FERMENT COMPOSITION FOR ROOT, SCALP, AND HAIR CARE AND METHOD OF PREPARING AND USING THE” (THE ROOTIST INC., priority 2023, published 2025)
“And” between values parts separate entries of the source, which are not always exact repeats. Identical values can stand only once.

System: 3D hair follicle organoids (HFDPC and HEKn cells)
Assay: Hair follicle organoid growth test
Format: cell-based, Human
Settings: 1 μM
Excerpt: Human Primary Dermal Papilla Cells (HFDPC) were collected from a person and provided by Kyungpook National University. Human Primary Epidermal Keratinocytes, neonatal foreskin (HEKn) cells were purchased from ATCC. […] The hair follicle organoid growth test aims to mass-produces hair follicle organoids by proliferating dermal papilla cells isolated from adult hair tissue in vitro, mixing them with keratinocytes, and then co-culturing them on a specially designed particle pattern substrate ([…], 150 spheroids/well). The experiment enables the assessment of the sample's impact on hair growth by monitoring changes in the diameter of keratinocyte pillars within the developed hair follicle organoid. In this test, to differentiate and validate the growth of HFDPC and HEKn cells, HFDPC cells were stained with Cell tracker CM-DilTM and HEKn cells were stained with Cell tracker Green CMFDATM. Stained HFDPC cells underwent filtration using a 15 μm strainer before being combined with DMEM medium to yield a density of 5×10^4 cells/well. Similarly, HEKn cells were adjusted to a density of 3×10^4 cells/well. […] 4) The test result measurements were initially analyzed using the Linear Mixed Model (LMM), which accounts for the random effects of each well. However, due to the lack of normality, the data were re-analyzed using the Generalized Linear Mixed Model (GLMM), which is suitable for non-normal data. […]

Compound: Nc1cc(N2CCCCC2)nc(N)[n+]1[O-] [Minoxidil, minoxidil]
- Hair follicle organoid growth rate (day 3, compared to the untreated group (100%)): 114.67% and 114.67 ± 5.69%
- hair follicle organoid diameter (day 3, estimated mean ± standard deviation): 25.77 ± 1.28 μm
